Measurements: patent US4436904A, “Cephalosporins” (Kanto Ishi Pharmaceutical Co., Ltd., priority 1981, dated 1984)
Converted amounts (≈) assume the structure as drawn. Where two headings read alike, the source gives them in different places.

Key:
Assay in all cases: Minimum inhibitory concentration (MIC), standard method of the Japanese Chemotherapeutic Association
Proteus vulgaris = format: cell-based; conditions: read-out: Minimum Inhibitory Concentration (MIC)
[1] = system: Serratia marcenscens IFO 12648; format: cell-based
Escherichia coli N I H J = format: cell-based; conditions: read-out: Minimum Inhibitory Concentration (MIC)
[2] = system: Salmonella enteritidis IID 604; format: cell-based; conditions: Salmonella enterica, read-out: Minimum Inhibitory Concentration (MIC)
Proteus morganii IID 602 = format: cell-based; conditions: Morganella morganii
[3] = system: Klebsiella pneumoniae IID 865; format: cell-based
[4] = system: Shigella dysenteriae IID 633; conditions: IID633, read-out: Minimum Inhibitory Concentration (MIC)
Shigella sonnei IID 969 = format: cell-based; conditions: IID969, Inoculum size: 10^6 cells/ml
[5] = system: Pseudomonas aeruginosa IFO 13739; format: cell-based
[6] = system: Enterobacter aerogenes IID 5206; format: cell-based; conditions: Klebsiella aerogenes
[7] = system: Staphylococcus epidermidis ATCC12228; format: cell-based
[8] = system: Staphylococcus aureus TERAJIMA; format: cell-based; conditions: read-out: Minimum Inhibitory Concentration (MIC)
[9] = system: Salmonella paratyphi IID 605; conditions: Salmonella enterica, IID605|PARATYPHI, read-out: Minimum Inhibitory Concentration (MIC)
Shigella boydii IID 627 = format: cell-based; conditions: IID627, Inoculum size: 10^6 cells/ml
Escherichia coli MEGAWA = format: cell-based; conditions: for MIC: Escherichia coli
[10] = system: Enterobacter cloacae IID 977; format: cell-based
[11] = system: Pseudomonas aeruginosa IFO 3080; format: cell-based
[12] = system: Salmonella typhimurium IID 1000; format: cell-based; conditions: Salmonella enterica, read-out: Minimum Inhibitory Concentration (MIC)
[13] = system: Bacillus subtilis ATCC 6633; format: cell-based
[14] = system: Staphylococcus aureus 209-P; format: cell-based; conditions: read-out: Minimum Inhibitory Concentration (MIC)
[15] = system: Pseudomonas pudita IID 5121; format: cell-based
[16] = IFO12648, read-out: Minimum Inhibitory Concentration (MIC)
[17] = Inoculum size: 10^6 cells/ml, weight concentration
[18] = IID602, read-out: Minimum Inhibitory Concentration (MIC)
[19] = IFO3080, read-out: Minimum Inhibitory Concentration (MIC)
[20] = IFO12648, Inoculum size: 10^6 cells/ml, potency concentration, read-out: Minimum Inhibitory Concentration (MIC)
[21] = Inoculum size: 10^6 cells/ml, potency concentration
[22] = IFO13739, read-out: Minimum Inhibitory Concentration (MIC)
[23] = IID5206, read-out: Minimum Inhibitory Concentration (MIC)
[24] = Inoculum size: 10^6 cells/ml, potency concentration, read-out: Minimum Inhibitory Concentration (MIC)
[25] = IID977, read-out: Minimum Inhibitory Concentration (MIC)
[26] = ATCC6633, read-out: Minimum Inhibitory Concentration (MIC)
[27] = IID5121, Inoculum size: 10^6 cells/ml, potency concentration, read-out: Minimum Inhibitory Concentration (MIC)

Structure (SMILES)	MIC (Proteus vulgaris) [µg/mL]	MIC [1, 16] [µg/mL]	MIC [2] [µg/mL]	MIC (Proteus morganii IID 602; [18]) [µg/mL]	MIC [4] [µg/mL]	MIC [9] [µg/mL]	MIC [11, 19] [µg/mL]	MIC [12] [µg/mL]	MIC [1, 20] [µg/mL]	MIC (Escherichia coli N I H J; [21]) [µg/mL]	MIC (Shigella sonnei IID 969; potency concentration) [µg/mL]	MIC [5, 22] [µg/mL]	MIC [6, 23] [µg/mL]	MIC (Shigella boydii IID 627; potency concentration) [µg/mL]	MIC (Escherichia coli MEGAWA; [24]) [µg/mL]	Minimum Inhibitory Concentration (MIC) (Escherichia coli MEGAWA; [21]) [µg/mL]	MIC [10, 25] [µg/mL]	MIC [13, 26] [µg/mL]	MIC [15, 27] [µg/mL]	also measured
Cc1nnc(SCC2=C(C(=O)O)N3C(=O)C(NC(=O)[C@H](NC(=O)N4CCN(N=C5SCCS5)C4=O)c4ccccc4)C3SC2)s1 (single isomer, unassigned) [TO-180, 7-{D-(-)-α-[(2-oxo-3-(1,3-dithiolan-2-imino)-imidazolidin-1-yl)-carboxamido]-phenylacetoamide}-3-[5-methyl-(1,3,4-thiadiazol-2-yl)-thiomethyl]-3-cephem-4-carboxylic acid]	1.56 (≈ 2.21 µM)	1.56 (≈ 2.21 µM)	1.56 (≈ 2.21 µM)	1.56 (≈ 2.21 µM)	0.39 (≈ 0.552 µM)	1.56 (≈ 2.21 µM)	1.56 (≈ 2.21 µM)	1.56 (≈ 2.21 µM)												MIC (Escherichia coli N I H J; [17]): < 0.1 µg/mL; MIC ([3]; IID865, Inoculum size: 10^6 cells/ml, weight concentration, read-out: Minimum Inhibitory Concentration (MIC)): 0.39 µg/mL (≈ 0.552 µM); MIC (Shigella sonnei IID 969; weight concentration): 0.39 µg/mL (≈ 0.552 µM); MIC ([5]; IFO13739, Inoculum size: 10^6 cells/ml, weight concentration, read-out: Minimum Inhibitory Concentration (MIC)): 6.25 µg/mL (≈ 8.84 µM); MIC ([6]; IID5206, Inoculum size: 10^6 cells/ml, weight concentration, read-out: Minimum Inhibitory Concentration (MIC)): 3.13 µg/mL (≈ 4.43 µM); MIC ([7]; ATCC12228, Inoculum size: 10^6 cells/ml, weight concentration, read-out: Minimum Inhibitory Concentration (MIC)): 0.39 µg/mL (≈ 0.552 µM); MIC [8, 17]: 0.39 µg/mL (≈ 0.552 µM); MIC (Shigella boydii IID 627; weight concentration): 0.39 µg/mL (≈ 0.552 µM); MIC (Escherichia coli MEGAWA; Inoculum size: 10^6 cells/ml, weight concentration, read-out: Minimum Inhibitory Concentration (MIC)): 6.25 µg/mL (≈ 8.84 µM); MIC ([10]; IID977, Inoculum size: 10^6 cells/ml, weight concentration, read-out: Minimum Inhibitory Concentration (MIC)): 3.13 µg/mL (≈ 4.43 µM); MIC ([13]; ATCC6633, Inoculum size: 10^6 cells/ml, weight concentration, read-out: Minimum Inhibitory Concentration (MIC)): 0.78 µg/mL (≈ 1.1 µM); MIC [14, 17]: 0.39 µg/mL (≈ 0.552 µM); MIC ([15]; IID5121, Inoculum size: 10^6 cells/ml, weight concentration, read-out: Minimum Inhibitory Concentration (MIC)): 25 µg/mL (≈ 35.4 µM)
CC(=O)OCC1=C(C(=O)O)N2C(=O)[C@@H](NC(=O)Cc3cccs3)[C@H]2SC1 [CET, cephalothin, reference compound]	6.25 (≈ 15.8 µM)		1.56 (≈ 3.93 µM)	> 100	0.78 (≈ 1.97 µM)	3.13 (≈ 7.9 µM)	> 100	0.78 (≈ 1.97 µM)	> 100	0.39 (≈ 0.984 µM)	6.25 (≈ 15.8 µM)	> 100	> 100	0.78 (≈ 1.97 µM)	> 100	< 100	> 100	< 0.1	> 100	MIC ([3]; IID865, read-out: Minimum Inhibitory Concentration (MIC)): 0.78 µg/mL (≈ 1.97 µM); MIC ([7]; ATCC12228, read-out: Minimum Inhibitory Concentration (MIC)): < 0.1 µg/mL; MIC [8]: 0.2 µg/mL (≈ 0.504 µM); MIC [14]: 0.2 µg/mL (≈ 0.504 µM)
CC1=C(C(=O)O)N2C(=O)[C@@H](NC(=O)[C@H](N)c3ccccc3)[C@H]2SC1 [CEX, cephalexin, reference compound]	12.5 (≈ 36 µM)	> 100	6.25 (≈ 18 µM)	> 100	3.13 (≈ 9.01 µM)	12.5 (≈ 36 µM)	> 100	3.13 (≈ 9.01 µM)			6.25 (≈ 18 µM)	> 100	> 100	3.13 (≈ 9.01 µM)		< 100	> 100	0.78 (≈ 2.25 µM)		MIC (Escherichia coli N I H J): 3.13 µg/mL (≈ 9.01 µM); MIC (Escherichia coli MEGAWA; read-out: Minimum Inhibitory Concentration (MIC), Inoculum size: 10^6 cells/ml, potency concentration): > 100 µg/mL; MIC ([15]; IID5121, read-out: Minimum Inhibitory Concentration (MIC)): > 100 µg/mL
CN(C)CCn1nnnc1SCC1=C(C(=O)O)N2C(=O)[C@@H](NC(=O)Cc3csc(N)n3)[C@H]2SC1 [CTM, cefotiam, reference compound]					< 0.1	< 0.1			25 (≈ 47.6 µM)	< 0.1	< 0.1			< 0.1	6.25 (≈ 11.9 µM)				> 100	MIC (Proteus vulgaris; [21]): 0.39 µg/mL (≈ 0.742 µM); MIC [2, 21]: 0.2 µg/mL (≈ 0.38 µM); MIC (Proteus morganii IID 602; IID602, Inoculum size: 10^6 cells/ml, potency concentration, read-out: Minimum Inhibitory Concentration (MIC)): 0.39 µg/mL (≈ 0.742 µM); MIC ([3]; IID865, Inoculum size: 10^6 cells/ml, potency concentration, read-out: Minimum Inhibitory Concentration (MIC)): < 0.1 µg/mL; MIC ([5]; IFO13739, Inoculum size: 10^6 cells/ml, potency concentration, read-out: Minimum Inhibitory Concentration (MIC)): > 100 µg/mL; MIC ([6]; IID5206, Inoculum size: 10^6 cells/ml, potency concentration, read-out: Minimum Inhibitory Concentration (MIC)): 1.56 µg/mL (≈ 2.97 µM); MIC ([7]; ATCC12228, Inoculum size: 10^6 cells/ml, potency concentration, read-out: Minimum Inhibitory Concentration (MIC)): 0.39 µg/mL (≈ 0.742 µM); MIC [8, 21]: 0.78 µg/mL (≈ 1.48 µM); MIC ([10]; IID977, Inoculum size: 10^6 cells/ml, potency concentration, read-out: Minimum Inhibitory Concentration (MIC)): 3.13 µg/mL (≈ 5.95 µM); MIC ([11]; IFO3080, Inoculum size: 10^6 cells/ml, potency concentration, read-out: Minimum Inhibitory Concentration (MIC)): > 100 µg/mL; MIC [12, 21]: < 0.1 µg/mL; MIC ([13]; ATCC6633, Inoculum size: 10^6 cells/ml, potency concentration, read-out: Minimum Inhibitory Concentration (MIC)): 0.39 µg/mL (≈ 0.742 µM); MIC [14, 21]: 0.39 µg/mL (≈ 0.742 µM)
